Each compound was assayed against Gastrin/cholecystokinin type B receptor (Cavia porcellus) (assay: Tested for inhibition of [3H]pCCK-8 specific binding to cholecystokinin type B receptor in guinea pig brain cortex).

Point of comparison: `CC(Cc1c[nH]c2ccccc12)(NC(=O)OC1[C@H]2C[C@@H]3C[C@@H](C[C@H]1C3)C2)C(=O)NCCc1ccc(Cl)cc1Cl` (stereo partly drawn) [[1-[2-(2,4-Dichloro-phenyl)-ethylcarbamoyl]-2-(1H-indol-3-yl)-1-methyl-ethyl]-carbamic acid adamantan-2-yl ester], Ki 27 nM. Against it:
- CC(Cc1c[nH]c2ccccc12)(NC(=O)OC1[C@H]2C[C@@H]3C[C@@H](C[C@H]1C3)C2)C(=O)NCc1ccccc1 (stereo partly drawn) [[1-Benzylcarbamoyl-2-(1H-indol-3-yl)-1-methyl-ethyl]-carbamic acid adamantan-2-yl ester] — 8.6-fold higher, 231 nM
- CC(Cc1c[nH]c2ccccc12)(C(=O)OC1[C@H]2C[C@@H]3C[C@@H](C[C@H]1C3)C2)C(=O)N(CCc1ccc(Cl)cc1Cl)CC(=O)O (stereo partly drawn) [N-Carboxymethyl-N-[2-(2,4-dichloro-phenyl)-ethyl]-2-(1H-indol-3-ylmethyl)-2-methyl-malonamic acid adamantan-2-yl ester] — 2.2-fold lower, 12 nM
- CC(Cc1c[nH]c2ccccc12)(NC(=O)OC1[C@H]2C[C@@H]3C[C@@H](C[C@H]1C3)C2)C(=O)NCC(=O)O (stereo partly drawn) [[2-(Adamantan-2-yloxycarbonylamino)-3-(1H-indol-3-yl)-2-methyl-propionylamino]-acetic acid] — 37-fold higher, 986 nM
- CCOC(=O)CN(CCc1ccccc1)C(=O)C(C)(Cc1c[nH]c2ccccc12)NC(=O)OC1[C@H]2C[C@@H]3C[C@@H](C[C@H]1C3)C2 (stereo partly drawn) [{[2-(Adamantan-2-yloxycarbonylamino)-3-(1H-indol-3-yl)-2-methyl-propionyl]-phenethyl-amino}-acetic acid ethyl ester] — 20-fold higher, 543 nM
- CC(Cc1c[nH]c2ccccc12)(NC(=O)OC1[C@H]2C[C@@H]3C[C@@H](C[C@H]1C3)C2)C(=O)NCCc1ccc(Br)cc1 (stereo partly drawn) [[1-[2-(4-Bromo-phenyl)-ethylcarbamoyl]-2-(1H-indol-3-yl)-1-methyl-ethyl]-carbamic acid adamantan-2-yl ester] — 1.9-fold higher, 51 nM
- CC(Cc1cccc2ccccc12)(NC(=O)OC1[C@H]2C[C@@H]3C[C@@H](C[C@H]1C3)C2)C(=O)N(CCc1ccccc1)CC(=O)O (stereo partly drawn) [{[2-(Adamantan-2-yloxycarbonylamino)-2-methyl-3-naphthalen-1-yl-propionyl]-phenethyl-amino}-acetic acid] — 5-fold higher, 134 nM
- CC(Cc1c[nH]c2ccccc12)(NC(=O)OC1[C@H]2C[C@@H]3C[C@@H](C[C@H]1C3)C2)C(=O)Nc1ccc2ccccc2c1 (stereo partly drawn) [[2-(1H-Indol-3-yl)-1-methyl-1-(naphthalen-2-ylcarbamoyl)-ethyl]-carbamic acid adamantan-2-yl ester] — 15-fold higher, 402 nM
- COc1ccc(CCNC(=O)C(C)(Cc2c[nH]c3ccccc23)NC(=O)OC2[C@H]3C[C@@H]4C[C@@H](C[C@H]2C4)C3)cc1 (stereo partly drawn) [{2-(1H-Indol-3-yl)-1-[2-(4-methoxy-phenyl)-ethylcarbamoyl]-1-methyl-ethyl}-carbamic acid adamantan-2-yl ester] — 4.3-fold higher, 115 nM
- CC(Cc1c[nH]c2ccccc12)(NC(=O)OC1[C@H]2C[C@@H]3C[C@@H](C[C@H]1C3)C2)C(=O)NCCc1ccc([N+](=O)[O-])cc1 (stereo partly drawn) [{2-(1H-Indol-3-yl)-1-methyl-1-[2-(4-nitro-phenyl)-ethylcarbamoyl]-ethyl}-carbamic acid adamantan-2-yl ester] — 2.9-fold higher, 79 nM
- CC(Cc1c[nH]c2ccccc12)(NC(=O)OC1[C@H]2C[C@@H]3C[C@@H](C[C@H]1C3)C2)C(=O)N(CCc1ccc(Cl)cc1Cl)CC(=O)O (stereo partly drawn) [{[2-(Adamantan-2-yloxycarbonylamino)-3-(1H-indol-3-yl)-2-methyl-propionyl]-[2-(2,4-dichloro-phenyl)-ethyl]-amino}-acetic acid] — within 1.5-fold, 37 nM

Biological target: Gastrin/cholecystokinin type B receptor (Cavia porcellus)
Assay: as above
Remark: another data set of the same source

`CC(Cc1c[nH]c2ccccc12)(NC(=O)OC1[C@H]2C[C@@H]3C[C@@H](C[C@H]1C3)C2)C(=O)NCCc1cccc2ccccc12` (stereo partly drawn) [[2-(1H-Indol-3-yl)-1-methyl-1-(2-naphthalen-1-yl-ethylcarbamoyl)-ethyl]-carbamic acid adamantan-2-yl ester] gave a Ki of 89 nM.

What follows are compounds tested against Cholecystokinin receptor type A (Rattus norvegicus) (UniProt P30551) (assay: Tested for binding affinity towards cholecystokinin type A receptor in rat pancreas by displacement of [3H]pCCK-8 radioligand).

In the case of `CC(Cc1ccc2ccccc2c1)(NC(=O)OC1[C@H]2C[C@@H]3C[C@@H](C[C@H]1C3)C2)C(=O)N(CCc1ccccc1)CC(=O)O` (stereo partly drawn) [{[2-(Adamantan-2-yloxycarbonylamino)-2-methyl-3-naphthalen-2-yl-propionyl]-phenethyl-amino}-acetic acid], the Ki is reported as 3010 nM.
